Assay results reported in publication PMC8766756, “Insights on Cancer Cell Inhibition, Subcellular Activities, and Kinase Profile of Phenylacetamides Pending 1H-Imidazol-5-One Variants” (Frontiers in Pharmacology, 2022).

Tests used:
Fyn (P06241) = biological target: T1, Fyn (P06241) (Homo sapiens, UniProt P06241); test: PamChip tyrosine kinase microarray; assay type: biochemical; conditions: 0.1 µM, HL60 lysate
T1 construct: purchased PamGene (PamChip PTK array, Upstream Kinase Analysis)
In short: (§1)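 HL60 (AML) cell lysate was spiked with compound at 0.001, 0.01, 0.1, 1, 10 and 50 µM, or 2% v/v DMSO as control, then profiled in technical replicates on a tyrosine kinase peptide array of 196 phosphosites. Kinase activity was inferred from peptide-set changes using an upstream kinase tool.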

Lmr1 (Q6ZMQ8) = biological target: T2, Lmr1 (Q6ZMQ8) (Homo sapiens, UniProt Q6ZMQ8); test: PamChip tyrosine kinase microarray; assay type: biochemical; conditions: 0.1 µM, HL60 lysate
T2 construct: purchased PamGene (PamChip PTK array, Upstream Kinase Analysis)
T2 sequence (Q6ZMQ8 1-1374): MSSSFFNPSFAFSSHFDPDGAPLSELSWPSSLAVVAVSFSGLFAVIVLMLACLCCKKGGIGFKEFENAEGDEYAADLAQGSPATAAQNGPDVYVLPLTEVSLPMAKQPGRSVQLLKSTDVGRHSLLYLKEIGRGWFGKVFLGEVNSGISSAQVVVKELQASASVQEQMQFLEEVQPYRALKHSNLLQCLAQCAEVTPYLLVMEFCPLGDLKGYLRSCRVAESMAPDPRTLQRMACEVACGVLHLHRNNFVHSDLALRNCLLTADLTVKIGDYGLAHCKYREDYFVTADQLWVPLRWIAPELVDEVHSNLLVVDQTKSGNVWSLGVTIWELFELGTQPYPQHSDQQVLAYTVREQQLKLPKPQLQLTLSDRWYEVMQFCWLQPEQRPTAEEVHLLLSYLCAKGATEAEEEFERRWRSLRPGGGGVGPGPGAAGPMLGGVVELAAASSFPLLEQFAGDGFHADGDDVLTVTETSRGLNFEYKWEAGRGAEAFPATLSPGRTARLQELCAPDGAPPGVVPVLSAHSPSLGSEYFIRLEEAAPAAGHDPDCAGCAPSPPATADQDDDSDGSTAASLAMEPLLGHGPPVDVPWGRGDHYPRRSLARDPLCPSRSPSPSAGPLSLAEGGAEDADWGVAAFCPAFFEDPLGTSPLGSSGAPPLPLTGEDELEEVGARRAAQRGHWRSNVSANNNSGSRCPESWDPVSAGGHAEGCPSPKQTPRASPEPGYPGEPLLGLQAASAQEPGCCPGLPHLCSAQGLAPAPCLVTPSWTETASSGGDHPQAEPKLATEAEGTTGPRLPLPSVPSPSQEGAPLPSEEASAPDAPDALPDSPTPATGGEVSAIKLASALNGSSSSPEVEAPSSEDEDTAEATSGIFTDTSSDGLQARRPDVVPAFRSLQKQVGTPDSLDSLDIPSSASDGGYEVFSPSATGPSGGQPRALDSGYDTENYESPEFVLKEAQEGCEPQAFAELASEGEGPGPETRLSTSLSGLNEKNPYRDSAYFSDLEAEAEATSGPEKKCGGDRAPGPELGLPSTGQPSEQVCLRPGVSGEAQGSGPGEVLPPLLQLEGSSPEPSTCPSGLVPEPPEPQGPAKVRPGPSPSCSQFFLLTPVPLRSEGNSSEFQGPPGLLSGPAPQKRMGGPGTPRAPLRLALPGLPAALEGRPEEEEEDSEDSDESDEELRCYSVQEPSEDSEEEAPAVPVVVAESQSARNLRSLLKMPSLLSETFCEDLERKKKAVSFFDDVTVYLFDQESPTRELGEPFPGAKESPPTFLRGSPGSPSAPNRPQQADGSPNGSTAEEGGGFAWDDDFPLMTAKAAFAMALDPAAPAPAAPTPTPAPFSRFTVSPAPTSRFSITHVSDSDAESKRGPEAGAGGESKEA
In short: as §1

T1 sequence (P06241 whole entry): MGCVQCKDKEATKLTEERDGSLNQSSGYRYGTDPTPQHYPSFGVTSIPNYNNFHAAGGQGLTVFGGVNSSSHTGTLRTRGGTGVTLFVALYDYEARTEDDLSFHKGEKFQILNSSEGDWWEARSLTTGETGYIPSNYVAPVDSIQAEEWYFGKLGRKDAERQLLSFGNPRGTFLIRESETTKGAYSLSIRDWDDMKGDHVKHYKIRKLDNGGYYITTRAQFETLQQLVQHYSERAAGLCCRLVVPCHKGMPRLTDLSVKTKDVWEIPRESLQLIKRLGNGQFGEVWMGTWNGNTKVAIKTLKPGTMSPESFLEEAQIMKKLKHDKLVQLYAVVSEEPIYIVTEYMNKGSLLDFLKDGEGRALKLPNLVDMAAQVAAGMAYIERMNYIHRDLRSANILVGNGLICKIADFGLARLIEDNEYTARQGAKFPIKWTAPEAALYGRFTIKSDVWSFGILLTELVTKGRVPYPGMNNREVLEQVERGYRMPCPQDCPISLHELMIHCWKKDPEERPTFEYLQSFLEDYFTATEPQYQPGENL

COc1ccc(/C=C2\N=C(C)N(c3ccc(CC(=O)NCc4ccccc4)cc3)C2=O)cc1 [Compound 4c, (Z)-N-Benzyl-2-(4-(4-(4-methoxybenzylidene)-2-methyl-5-oxo-4,5-dihydro-1H-imidazol-1-yl)phenyl)acetamide]
Mean Final score (Kinase score) (Fyn (P06241)): 2.45
Mean Kinase Statistic (Fyn (P06241)): -1.236
Mean Significance Score (Fyn (P06241)): 2.048
Mean Specificity Score (Fyn (P06241)): 0.4193
Mean Final score (Kinase score) (Lmr1 (Q6ZMQ8)): 2.52
Mean Kinase Statistic (Lmr1 (Q6ZMQ8)): -1.33
Mean Significance Score (Lmr1 (Q6ZMQ8)): 1.989
Mean Specificity Score (Lmr1 (Q6ZMQ8)): 0.4793
